From article PMC3933693, “Novel Inhibitors of Mitochondrial sn-Glycerol 3-phosphate Dehydrogenase” (PLoS ONE, 2014)

Columns and labels:
[1] = system: skeletal muscle mitochondria; test: Mitochondrial membrane potential (ΔΨm, TMRM) powered by glycerol phosphate; assay type: biochemical, rat; details: 80 μM; 16.7 mM glycerol phosphate, 4 µM rotenone, nigericin
mGPDH = molecular target: T1, mGPDH (Rattus norvegicus, UniProt P35571); test: Superoxide/H2O2 production by mGPDH in isolated skeletal muscle mitochondria (Amplex UltraRed); assay type: biochemical; details: for inhibition at 80 µM: read-out: mGPDH H2O2 production (% change at 80 μM); for IC50: Fig. 4 structure/activity microplate assay, 0.08–80 µM, estimated, means of two replicates, read-out: mGPDH H2O2 production IC50; for mGPDH (% change from DMSO): primary screen, ∼2.5 µM, average of duplicates, 16.7 mM glycerol phosphate, no added calcium
T1 construct: Activity of mGPDH in frozen-thawed skeletal muscle mitochondria was measured; from tissue; host or cells: skeletal muscle mitochondria
T1 sequence (P35571 43-727): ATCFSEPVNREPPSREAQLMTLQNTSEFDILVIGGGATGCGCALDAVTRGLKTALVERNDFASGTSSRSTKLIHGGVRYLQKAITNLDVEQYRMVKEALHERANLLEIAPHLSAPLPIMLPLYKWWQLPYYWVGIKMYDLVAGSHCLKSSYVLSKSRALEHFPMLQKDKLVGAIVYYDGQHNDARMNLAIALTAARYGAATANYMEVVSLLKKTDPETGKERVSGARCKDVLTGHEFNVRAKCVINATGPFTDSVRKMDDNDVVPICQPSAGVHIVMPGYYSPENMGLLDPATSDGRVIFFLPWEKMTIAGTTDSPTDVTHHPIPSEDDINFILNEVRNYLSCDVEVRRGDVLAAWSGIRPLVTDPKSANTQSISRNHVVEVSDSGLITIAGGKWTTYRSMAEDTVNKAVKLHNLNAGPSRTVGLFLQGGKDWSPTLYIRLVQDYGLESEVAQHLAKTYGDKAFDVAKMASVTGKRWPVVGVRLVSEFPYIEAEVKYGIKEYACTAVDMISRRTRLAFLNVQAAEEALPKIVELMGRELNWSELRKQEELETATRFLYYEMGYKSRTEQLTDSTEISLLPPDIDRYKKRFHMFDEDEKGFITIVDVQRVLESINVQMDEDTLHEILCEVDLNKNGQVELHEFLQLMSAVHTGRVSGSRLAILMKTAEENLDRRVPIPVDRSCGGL

[2] = system: ubiquinone-binding site of complex I (site IQ); test: Site-specific H2O2 production from site IQ in skeletal muscle mitochondria; assay type: biochemical, rat; details: 5 mM succinate; for IQ (% change from DMSO): primary screen, ∼2.5 µM, average of duplicates;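 as to all read-outs here: H2O2 from superoxide detected by Amplex UltraRed fluorescence with added superoxide dismutase and horseradish peroxidase, endpoint read 30–40 min after substrate addition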
Method: Superoxide was measured as H2O2 after dismutation by endogenous or exogenous superoxide dismutase. Rates of total superoxide/H2O2 production were measured fluorimetrically using Amplex UltraRed in the presence of exogenous superoxide dismutase and horseradish peroxidase in a Varian Cary Eclipse fluorimeter as previously described [27]. Rates of production from specific sites were determined as previously described using the following eight conditions: flavin mononucleotide site of complex I (site IF) plus matrix NAD-linked dehydrogenases (collectively "site IF/DH") with 5 mM glutamate, 5 mM malate, and 4 µM rotenone [28]; ubiquinone-binding site of complex I (site IQ) with either 0.5 or 5 mM succinate [29]; flavin site of complex II (site IIF) with either 15 µM palmitoylcarnitine, 2.5 µM antimycin A, and 2 µM myxothiazol or 0.5 mM succinate, 4 µM rotenone, 2.5 µM antimycin A, and 2 µM myxothiazol [30], [31]; mGPDH with 1.7 mM glycerol phosphate, 4 µM rotenone, 2.5 µM antimycin A, 2 µM myxothiazol, 1 mM malonate, and 250 nM free calcium; outer ubiquinone-binding site of complex III (site IIIQo) with either 0.5 or 5 mM succinate, 4 µM rotenone and 2.5 µM antimycin A [32]. Candidate small-molecule inhibitors were added prior to the start of measurements and H2O2 calibration curves were performed in the presence of tested compounds.
3,200 compounds were tested initially at 2.5 µM (0.025% DMSO final) in duplicate on different plates against a panel of five distinct assays of site-specific superoxide/H2O2 production as described in the previous section with minor changes. […] Endpoint fluorescence was measured on a Perkin Elmer Victor V3 fluorescent plate reader. The fluorescence intensity of each well was normalized as % change from the average of eight DMSO controls on the same plate. Duplicate wells of each of four modulators of mitochondrial metabolism known to inhibit specific sites of superoxide/H2O2 production were included on each plate as positive controls and the resulting fluorescence levels set as −100% change from DMSO controls. Known inhibitors included 20 mM aspartate (for site IF/DH), 1 µM FCCP (for site IQ), 10 mM malonate (for site IIF), and 2 µM myxothiazol (for site IIIQo). The background fluorescence of the FCCP wells in the site IQ assay was used to normalize mGPDH plates run in parallel. To minimize position-dependent effects across each assay plate, Tukey’s two-way median polish was applied to fluorescence values after initial normalization [35], [36]. Tukey’s polish is an iterative subtraction of the median row and column values from each well’s given row or column. The procedure is repeated until sequential medians for each row and column are zero and positional gradients in fluorescence are eliminated.
These 20 compounds were tested in duplicate at 0.08–80 µM (0.1% DMSO final) in microplate format for effects on site-specific H2O2 production as described above. […] Plates were incubated in the dark at room temperature for 30–40 min (H2O2) or 10–15 min (ΔΨm) after the addition of substrate, and endpoint fluorescence was measured on the Victor plate reader. Endpoints were chosen for the H2O2 assays to provide good signal-to-noise ratios and linear rates of change without the indicator dye limiting the reaction.

[3] = system: skeletal muscle mitochondria; test: Mitochondrial membrane potential (ΔΨm, TMRM) powered by glutamate plus malate; assay type: biochemical, rat; details: for ΔΨm with Glu + Mal + Nig (% change at 80 μM) / ΔΨm with Glu + Mal (% change at 80 μM): 5 mM glutamate, 5 mM malate; for ΔΨm with Glu + Mal + Nig (% change at 80 μM): with nigericin; for ΔΨm with Glu + Mal (% change at 80 μM): without nigericin; for ΔΨm (% change from DMSO): primary screen, ∼2.5 µM, average of duplicates, glutamate and malate
[4] = molecular target: T2, outer ubiquinone-binding site of complex III (site IIIQo) (Rattus norvegicus, UniProt P00159+P20788); test: Site-specific H2O2 production from site IIIQo in skeletal muscle mitochondria; assay type: biochemical; details: primary screen, ∼2.5 µM, average of duplicates; 5 mM succinate
T2 construct: from tissue; host or cells: skeletal muscle mitochondria
Method: (§1) Superoxide was measured as H2O2 after dismutation by endogenous or exogenous superoxide dismutase. Rates of total superoxide/H2O2 production were measured fluorimetrically using Amplex UltraRed in the presence of exogenous superoxide dismutase and horseradish peroxidase in a Varian Cary Eclipse fluorimeter as previously described. Rates of production from specific sites were determined as previously described using the following eight conditions: flavin mononucleotide site of complex I (site IF) plus matrix NAD-linked dehydrogenases (collectively "site IF/DH") with 5 mM glutamate, 5 mM malate, and 4 µM rotenone; ubiquinone-binding site of complex I (site IQ) with either 0.5 or 5 mM succinate; flavin site of complex II (site IIF) with either 15 µM palmitoylcarnitine, 2.5 µM antimycin A, and 2 µM myxothiazol or 0.5 mM succinate, 4 µM rotenone, 2.5 µM antimycin A, and 2 µM myxothiazol, [31]; mGPDH with 1.7 mM glycerol phosphate, 4 µM rotenone, 2.5 µM antimycin A, 2 µM myxothiazol, 1 mM malonate, and 250 nM free calcium; outer ubiquinone-binding site of complex III (site IIIQo) with either 0.5 or 5 mM succinate, 4 µM rotenone and 2.5 µM antimycin A [32]. Candidate small-molecule inhibitors were added prior to the start of measurements and H2O2 calibration curves were performed in the presence of tested compounds.
(§2) 3,200 compounds were tested initially at 2.5 µM (0.025% DMSO final) in duplicate on different plates against a panel of five distinct assays of site-specific superoxide/H2O2 production as described in the previous section with minor changes. […] Endpoint fluorescence was measured on a Perkin Elmer Victor V3 fluorescent plate reader. The fluorescence intensity of each well was normalized as % change from the average of eight DMSO controls on the same plate. Duplicate wells of each of four modulators of mitochondrial metabolism known to inhibit specific sites of superoxide/H2O2 production were included on each plate as positive controls and the resulting fluorescence levels set as −100% change from DMSO controls. Known inhibitors included 20 mM aspartate (for site IF/DH), 1 µM FCCP (for site IQ), 10 mM malonate (for site IIF), and 2 µM myxothiazol (for site IIIQo). The background fluorescence of the FCCP wells in the site IQ assay was used to normalize mGPDH plates run in parallel. To minimize position-dependent effects across each assay plate, Tukey’s two-way median polish was applied to fluorescence values after initial normalization, [36]. Tukey’s polish is an iterative subtraction of the median row and column values from each well’s given row or column. The procedure is repeated until sequential medians for each row and column are zero and positional gradients in fluorescence are eliminated.

[5] = system: flavin mononucleotide site of complex I (site IF) plus matrix NAD-linked dehydrogenases (site IF/DH); test: Site-specific H2O2 production from site IF/DH in skeletal muscle mitochondria; assay type: biochemical, rat; details: primary screen, ∼2.5 µM, average of duplicates
Method: as §1, §2

[6] = molecular target: T3, flavin site of complex II (site IIF) (Rattus norvegicus, UniProt Q920L2); test: Site-specific H2O2 production from site IIF in skeletal muscle mitochondria; assay type: biochemical; details: primary screen, ∼2.5 µM, average of duplicates; palmitoylcarnitine
T3 construct: from tissue; host or cells: skeletal muscle mitochondria
T3 sequence (Q920L2 35-656): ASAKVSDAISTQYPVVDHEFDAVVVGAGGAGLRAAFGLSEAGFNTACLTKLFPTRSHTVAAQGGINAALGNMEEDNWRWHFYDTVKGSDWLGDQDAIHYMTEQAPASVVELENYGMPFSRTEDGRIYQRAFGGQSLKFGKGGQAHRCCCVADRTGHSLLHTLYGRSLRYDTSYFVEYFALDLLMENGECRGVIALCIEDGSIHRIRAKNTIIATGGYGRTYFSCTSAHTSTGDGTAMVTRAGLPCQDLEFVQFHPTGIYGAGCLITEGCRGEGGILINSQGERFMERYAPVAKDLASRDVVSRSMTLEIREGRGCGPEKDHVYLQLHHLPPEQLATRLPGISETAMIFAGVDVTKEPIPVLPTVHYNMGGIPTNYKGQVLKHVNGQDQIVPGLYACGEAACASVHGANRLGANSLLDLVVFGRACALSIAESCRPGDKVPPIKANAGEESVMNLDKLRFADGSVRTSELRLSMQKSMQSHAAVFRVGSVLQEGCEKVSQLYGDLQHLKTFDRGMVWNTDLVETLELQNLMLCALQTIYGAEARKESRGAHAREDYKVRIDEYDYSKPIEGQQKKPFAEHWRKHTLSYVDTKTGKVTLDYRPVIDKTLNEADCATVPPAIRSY
T3 sequence (P21913 31-282 partner): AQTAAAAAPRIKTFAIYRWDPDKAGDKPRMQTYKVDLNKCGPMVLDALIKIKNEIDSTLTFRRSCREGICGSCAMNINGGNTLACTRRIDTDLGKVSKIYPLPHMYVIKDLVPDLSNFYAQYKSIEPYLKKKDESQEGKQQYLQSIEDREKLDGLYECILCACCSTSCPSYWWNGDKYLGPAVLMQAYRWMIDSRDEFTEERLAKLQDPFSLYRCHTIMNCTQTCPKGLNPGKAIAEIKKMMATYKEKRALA
T3 sequence (Q641Z9 30-169 partner limits assumed): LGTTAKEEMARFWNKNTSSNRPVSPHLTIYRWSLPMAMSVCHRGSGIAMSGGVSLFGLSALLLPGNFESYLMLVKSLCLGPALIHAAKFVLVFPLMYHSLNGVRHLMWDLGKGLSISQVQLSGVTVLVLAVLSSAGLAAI
T3 sequence (Q6PCT8 57-159 partner): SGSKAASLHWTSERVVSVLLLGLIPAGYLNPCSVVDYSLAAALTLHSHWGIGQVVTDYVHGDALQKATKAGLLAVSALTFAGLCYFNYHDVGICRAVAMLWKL
Method: as §1, §2

SMILES | ΔΨm with GP + Nig (% change at 80 μM) [1] | inhibition at 80 µM (mGPDH) | IQ H2O2 production with 5 mM Suc (% change at 80 μM) [2] | ΔΨm with Glu + Mal + Nig (% change at 80 μM) [3] | ΔΨm with Glu + Mal (% change at 80 μM) [3] | IC50 (mGPDH) | lowering of potency versus mGPDH ROS production relative to iGP-1 (mGPDH; ortho- to para- positioning) | IIIQo (% change from DMSO) [4] | mGPDH (% change from DMSO) (mGPDH) | IF/DH (% change from DMSO) [5] | IQ (% change from DMSO) [2] | ΔΨm (% change from DMSO) [3] | IIF (% change from DMSO) [6]
O=C(O)CCC(=O)Nc1ccc(-c2nc3cc(NC(=O)CCC(=O)O)ccc3[nH]2)cc1 [iGP-7] | 4% | 21% | 3% | 2% | 25% |  |  |  |  |  |  |  | 
O=C(O)CCC(=O)Nc1cccc(-c2nc3ccccc3[nH]2)c1 [iGP-8] | -7% | 44% | -14% | 1% | 3% | 50 µM | more than 5 fold |  |  |  |  |  | 
O=C(O)CCC(=O)Nc1ccc(-c2nc3cc(C(=O)c4ccccc4)ccc3[nH]2)cc1 [iGP-6] | -59% | 55% | -28% | 17% | 93% | 3 µM |  |  |  |  |  |  | 
COC(=O)CCC(=O)Nc1ccc(C)cc1 [iGP-20] | 0% | 20% | -8% | -1% | -3% |  |  |  |  |  |  |  | 
CCC1CCCCN1C/C=C/c1ccc(N(C)C)cc1 (centres unmarked) [compound 5429735] |  |  |  |  |  |  |  | -11.7% | -10.7% | -23.1% | -0.0537% | 0.3% | -4.3%
CC(C)CSC(CC(=O)O)C(=O)O (centres unmarked) [compound 5152843] |  |  |  |  |  |  |  | -15.7% | -10.7% | -19.0% | -6.2% | -0.119% | -7.8%
O=S(=O)(Nc1ccc(O)c(Br)c1)c1ccc(Cl)cc1 [compound 5158529] |  |  |  |  |  |  |  | -42.6% | -23.5% | -54.3% | -50.5% | -0.4% | -47.6%
O=C1N=C(c2ccccc2)C(c2ccccc2)N1 (centres unmarked) [compound 5162292] |  |  |  |  |  |  |  | -23.8% | -13.1% | -7.5% | -4.2% | -2.7% | -24.8%
CCCCc1c(C(=O)O)cc(C)cc1C(=O)O [compound 5119061] |  |  |  |  |  |  |  | -6.2% | -10.0% | -13.1% | -6.2% | 0.737% | -5.7%
Cc1ccc(NC(=O)c2ccc(C(C)(C)C)cc2)cc1 [compound 5210384] |  |  |  |  |  |  |  | 11.8% | -11.4% | 6.3% | 1.4% | -1.1% | -0.156%
COc1ccc(C(=O)Nc2ccc(S(=O)(=O)Nc3nc(C)cc(C)n3)cc2)c(OC)c1 [compound 5219504] |  |  |  |  |  |  |  | -8.8% | -29.8% | -30.7% | -19.3% | 1.4% | -44.3%
Nc1nc(-c2ccc(Cl)c(Cl)c2)cs1 [compound 5690819] |  |  |  |  |  |  |  | -4.6% | -10.3% | -0.9% | -3.1% | 0.636% | -7.3%
CC(C)c1nnc(NC(=O)c2cccc([N+](=O)[O-])c2)s1 [compound 5210298] |  |  |  |  |  |  |  | 4.3% | -17.8% | -36.0% | -67.3% | -4.4% | -17.8%
COc1ccc(NCc2ccccc2)cc1 [compound 5107549] |  |  |  |  |  |  |  | -6.9% | -28.0% | -41.3% | -27.5% | 0.3% | -44.6%
CC(=O)c1c(C)n(-c2ccccc2)c2ccc(O)cc12 [compound 5215317] |  |  |  |  |  |  |  | -6.4% | -14.1% | -34.7% | -13.7% | 0.144% | -26.9%
c1coc(CNc2ccc3c(c2)OCO3)c1 [compound 5457094] |  |  |  |  |  |  |  | -17.4% | -20.2% | -27.2% | -27.2% | 0.527% | -27.6%
O=C1c2ccccc2C(=O)N1CCc1c[nH]c2ccc(O)cc12 [compound 5106791] |  |  |  |  |  |  |  | -35.4% | -16.2% | -33.6% | -44.7% | 0.466% | -42.5%
O=[N+]([O-])c1ccc2[nH]c(-c3ccccc3)cc2c1 [compound 5107950] |  |  |  |  |  |  |  | 46.2% | -19.8% | -58.4% | -70.5% | -14.4% | -18.1%
O=C(O)CSc1cccc(C(=O)Nc2ccc(Br)cc2)c1 [compound 5210767] |  |  |  |  |  |  |  | -0.0236% | -14.1% | -0.5% | -0.0908% | -0.00715% | 1.3%
Nc1cc(S(=O)(=O)c2ccc(O)c(N)c2)ccc1O [compound 5105145] |  |  |  |  |  |  |  | -48.5% | -37.3% | -62.0% | -49.7% | -1.2% | -62.7%
